Like-named read-outs stand apart in the source and are kept apart here.
How the values were obtained:
[1] = Protein binding, human plasma (CEREP); format: in vitro ADME; settings: read-out: Protein Binding, Human Plasma, % bound (converted)
Procedure: (§1) Preliminary screening measures were conducted by CEREP. All values fall within acceptable limits (Table 5). Solubility assays where performed by CEREP, Seattle, Wash., according to Lipinski, C. A. et al., 1997, Adv. Drug Del. Rev., 46:3-26. Protein binding assays where performed by CEREP, Seattle, Wash., according to Banker, M. J. et al., 2003, J. Pharm. Sci., 92:967-974. Permeability assays where performed by CEREP, Seattle, Wash. according to Hildalgo, I. J., 1998, Gastroenterology, 96:736-749. Metabolic stability assays where performed by CEREP, Seattle, Wash., according to Obach, R. S. et al., 1997, J. Pharmacol. Exp. Ther., 283:46-58. P-glycoprotein inhibition assays where performed by CEREP, Seattle, Wash., according to Polli, J. W. et al., 2001, J. Pharm. Exp. Ther., 299:620-628. Cell viability assays where performed by CEREP, Seattle, Wash., according to Mosmann, T., 1983, J. Immunol. Met. 65:55-62. hERG automated patch clamp assays where performed by CEREP, Seattle, Wash., according to Mathes, C., 2006, Expert Opin. Ther. Targets, 10:230-241.

hERG = target: T1, hERG (Homo sapiens, UniProt Q12809); test: hERG automated patch clamp (CEREP); format: cell-based
T1 construct: host or cells: CHO (Chinese hamster ovary)
Procedure: as §1

[2] = tested on: M (non-selective) Muscarinic Receptor; test: Receptor cross-reactivity binding panel (CEREP)
Excerpt: The receptor cross-reactivity profile is composed of 71 binding and 27 enzyme assays. The binding assay panel is broadly defined with roughly an equal number of selective, central and peripheral therapeutically relevant targets. The enzyme assay panel includes the most representative targets from diverse enzyme families with a particular focus on phosphatases and specific enzymes involved in cell cycle regulation. Assays where performed by CEREP, Seattle, Wash., with protocols similar to Cordeaux, Y. et al., 2004 Brit. J. Pharmacol., 143:705-714. JB6121 was tested for receptor cross reactivity at 10 μM for approximately 100 receptors and enzymes. Any % inhibition greater than 50% (IC50<10 μM) is highlighted below in Table 7.

[3] = Toxicokinetics of the 7-day tox study; format: in vivo, rats; settings: for increase in AUC0-24 h for a 10-fold increase in dose / increase in Cmax for a 10-fold increase in dose: 10 to 100 mg/kg; for AUC / half-life / Cmax / Tmax / clearance / Vd / bioavailability: rat; for half-life: read-out: T½ (converted); for Vd: read-out: Vdss; for bioavailability: read-out: calculated oral absolute bioavailability
Procedure: A 7-day non-GLP tox study was performed in rats. […] The following parameters and end points were evaluated in this study: clinical signs, body weights, body weight changes, food consumption, clinical pathology parameters (hematology, coagulation, clinical chemistry, and urinalysis), toxicokinetic parameters, gross necropsy findings, organ weights, and histopathologic examinations.
Clinical signs and body weight changes in the TK animals were generally similar to the main toxicology phase animals. Select toxicokinetic parameters from Days 1 and 7 are included below in Table 11.

LogD, pH 7.4 = format: physicochemical
[4] = all three oral doses, whole blood
[5] = female, whole blood, iv, 5 mg/kg, Day 1, 5 mg/kg I.V., Female
[6] = female, whole blood, po, 10 mg/kg, Day 1, 10 mg/kg oral, Female
[7] = female, whole blood, po, 10 mg/kg, Day 7, 10 mg/kg oral, Female
[8] = female, whole blood, po, 30 mg/kg, Day 1, 30 mg/kg oral, Female
[9] = female, whole blood, po, 30 mg/kg, Day 7, 30 mg/kg oral, Female
[10] = female, whole blood, po, 100 mg/kg, Day 1, 100 mg/kg oral, Female
[11] = female, whole blood, po, 100 mg/kg, Day 7, 100 mg/kg oral, Female
[12] = male, whole blood, iv, 5 mg/kg, Day 1, 5 mg/kg I.V., Male
[13] = male, whole blood, po, 10 mg/kg, Day 1, 10 mg/kg oral, Male
[14] = male, whole blood, po, 10 mg/kg, Day 7, 10 mg/kg oral, Male
[15] = male, whole blood, po, 30 mg/kg, Day 1, 30 mg/kg oral, Male
[16] = male, whole blood, po, 30 mg/kg, Day 7, 30 mg/kg oral, Male
[17] = male, whole blood, po, 100 mg/kg, Day 1, 100 mg/kg oral, Male
[18] = male, whole blood, po, 100 mg/kg, Day 7, 100 mg/kg oral, Male
[19] = whole blood, iv, Day 1, 5 mg/kg I.V., Female
[20] = whole blood, iv, Day 1, 5 mg/kg I.V., Male

T1 sequence (Q12809 whole entry): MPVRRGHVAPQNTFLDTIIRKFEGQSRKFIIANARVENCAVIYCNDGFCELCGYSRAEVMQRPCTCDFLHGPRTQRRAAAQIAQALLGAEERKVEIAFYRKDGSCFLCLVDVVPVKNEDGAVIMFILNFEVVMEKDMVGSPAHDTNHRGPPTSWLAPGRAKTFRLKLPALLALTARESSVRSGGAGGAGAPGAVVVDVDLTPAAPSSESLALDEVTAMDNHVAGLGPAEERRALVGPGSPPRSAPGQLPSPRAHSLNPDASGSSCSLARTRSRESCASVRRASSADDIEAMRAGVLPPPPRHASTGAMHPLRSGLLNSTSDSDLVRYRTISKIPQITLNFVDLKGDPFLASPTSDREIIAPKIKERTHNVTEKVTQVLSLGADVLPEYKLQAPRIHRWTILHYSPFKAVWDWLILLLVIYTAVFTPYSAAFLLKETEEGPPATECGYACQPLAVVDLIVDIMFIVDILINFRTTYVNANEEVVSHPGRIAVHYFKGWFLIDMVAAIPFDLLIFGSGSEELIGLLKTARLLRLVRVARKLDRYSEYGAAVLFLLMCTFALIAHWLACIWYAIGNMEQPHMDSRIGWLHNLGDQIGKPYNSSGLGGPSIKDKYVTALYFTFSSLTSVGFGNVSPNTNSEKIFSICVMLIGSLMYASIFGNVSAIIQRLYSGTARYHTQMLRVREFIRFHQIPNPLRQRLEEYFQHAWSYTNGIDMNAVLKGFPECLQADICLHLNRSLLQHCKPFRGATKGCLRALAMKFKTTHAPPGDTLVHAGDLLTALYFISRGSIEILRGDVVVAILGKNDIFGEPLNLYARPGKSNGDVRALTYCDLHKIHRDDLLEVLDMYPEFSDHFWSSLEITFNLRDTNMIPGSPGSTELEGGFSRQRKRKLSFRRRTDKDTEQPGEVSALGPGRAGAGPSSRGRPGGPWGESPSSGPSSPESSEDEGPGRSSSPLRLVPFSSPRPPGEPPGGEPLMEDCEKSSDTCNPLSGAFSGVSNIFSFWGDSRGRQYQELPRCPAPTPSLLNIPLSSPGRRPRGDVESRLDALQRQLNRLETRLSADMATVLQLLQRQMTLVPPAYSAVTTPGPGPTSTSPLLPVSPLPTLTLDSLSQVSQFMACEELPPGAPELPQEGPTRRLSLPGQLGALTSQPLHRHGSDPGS

CN1CCN(c2nc(NCCN3CCOCC3)c3nc(Cl)c(NCCN4CCOCC4)nc3n2)CC1 [JB6121, 6-chloro-2-(4-methylpiperazin-1-yl)-N^4,N^7-bis(2-morpholinoethyl)pteridine-4,7-diamine]
fraction unbound [1]: 0.13
inhibition at 10 µM (hERG): 11%
% Ligand Inhibition, M (non-selective) Muscarinic Receptor ([2]; 10 μM): 63.1%
IC50 ([2]; most-likely, estimated from 10 μM result): > 5 µM
7-day accumulation ([3]; 7 day toxicokinetics versus 24 h PK whole blood exposures): approximately 2 fold
F (0-x) ([3]; Day 1, 10 mg/kg oral, Female): 8.10%
F (0-x) ([3]; Day 1, 10 mg/kg oral, Male): 13.3%
F (0-x) ([3]; Day 1, 30 mg/kg oral, Female): 37.2%
F (0-x) ([3]; Day 1, 30 mg/kg oral, Male): 28.0%
F (0-x) ([3]; Day 1, 100 mg/kg oral, Female): 91.0%
F (0-x) ([3]; Day 1, 100 mg/kg oral, Male): 78.5%
increase in AUC0-24 h for a 10-fold increase in dose ([3]; Day 1, female): 113 fold
increase in Cmax for a 10-fold increase in dose ([3]; Day 1, female): 43 fold
increase in AUC0-24 h for a 10-fold increase in dose ([3]; Day 1, male): 59 fold
increase in Cmax for a 10-fold increase in dose ([3]; Day 1, male): 32 fold
increase in AUC0-24 h for a 10-fold increase in dose ([3]; Day 7, female): 38 fold
increase in Cmax for a 10-fold increase in dose ([3]; Day 7, female): 20 fold
increase in AUC0-24 h for a 10-fold increase in dose ([3]; Day 7, male): 48 fold
increase in Cmax for a 10-fold increase in dose ([3]; Day 7, male): 24 fold
average D7/D1 AUC0-24 h ratio [3, 4]: 2.79
average D7/D1 Cmax ratio [3, 4]: 1.71
AUC [3, 5]: 2210 ng·h/mL
half-life [3, 5]: 10.8 h
AUC [3, 6]: 357 ng·h/mL
Cmax [3, 6]: 92 ng/mL
Tmax [3, 6]: 3 h
half-life [3, 6]: 5.43 h
AUC [3, 7]: 2120 ng·h/mL
Cmax [3, 7]: 260 ng/mL
Tmax [3, 7]: 3 h
half-life [3, 7]: 18.2 h
AUC [3, 8]: 4920 ng·h/mL
Cmax [3, 8]: 643 ng/mL
Tmax [3, 8]: 3 h
half-life [3, 8]: 8.8 h
AUC [3, 9]: 8890 ng·h/mL
Cmax [3, 9]: 639 ng/mL
Tmax [3, 9]: 6 h
half-life [3, 9]: 14.3 h
AUC [3, 10]: 40300 ng·h/mL
Cmax [3, 10]: 3980 ng/mL
Tmax [3, 10]: 3 h
half-life [3, 10]: 9.39 h
AUC [3, 11]: 80200 ng·h/mL
Cmax [3, 11]: 5310 ng/mL
Tmax [3, 11]: 3 h
half-life [3, 11]: 14.1 h
AUC [3, 12]: 2790 ng·h/mL
half-life [3, 12]: 10.2 h
AUC [3, 13]: 743 ng·h/mL
Cmax [3, 13]: 122 ng/mL
Tmax [3, 13]: 3 h
half-life [3, 13]: 14.1 h
AUC [3, 14]: 1910 ng·h/mL
Cmax [3, 14]: 181 ng/mL
Tmax [3, 14]: 3 h
half-life [3, 14]: 19.9 h
AUC [3, 15]: 4700 ng·h/mL
Cmax [3, 15]: 582 ng/mL
Tmax [3, 15]: 3 h
half-life [3, 15]: 9.39 h
AUC [3, 16]: 11100 ng·h/mL
Cmax [3, 16]: 805 ng/mL
Tmax [3, 16]: 6 h
half-life [3, 16]: 18.4 h
AUC [3, 17]: 43800 ng·h/mL
Cmax [3, 17]: 3950 ng/mL
Tmax [3, 17]: 3 h
half-life [3, 17]: 11.9 h
AUC [3, 18]: 91200 ng·h/mL
Cmax [3, 18]: 6280 ng/mL
Tmax [3, 18]: 3 h
half-life [3, 18]: 40.4 h
slope of Cmax versus dose ([3]; pooled 7-day exposure data, 0 to 30 mg/kg): 28.24 ng/mL/mg/kg
clearance [3, 19]: 31.5 mL/min/kg
Vd [3, 19]: 23.1 L/kg
clearance [3, 20]: 24.7 mL/min/kg
Vd [3, 20]: 18.1 L/kg
bioavailability ([3]; whole blood, po, Day 1, 10 mg/kg): 13.3%
bioavailability ([3]; whole blood, po, Day 1, 30 mg/kg): 28%
bioavailability ([3]; whole blood, po, Day 1, 100 mg/kg): 78.5%
logD (LogD, pH 7.4): 0.995

From patent US20170275287A1, “NOVEL N2, N4, N7, 6-TETRASUBSTITUTED PTERIDINE-2,4,7-TRIAMINE AND 2, 4, 6, 7-TETRASUBSTITUTED PTERIDINE COMPOUNDS AND METHODS OF SYNTHESIS AND USE THEREOF” (Janus Biotherapeutics, Inc., priority 2014, published 2017)
